One experiment deals with SARS-CoV-2 NSP7-HiBiT. Particulars: read-out: NSP7- HiBiT; reduction of NSP7-HiBiT signal; degrader. A general note: The HiBiT peptide binds its large partner to form an active luciferase.
Another experiment has as its system T1, HCoV-OC43.
T1 construct: ATCC VR-1558
The experiment can be described thus: microbe, parasite or virus in culture. Also noted: HCoV-OC43 infection assay, reduction of viral infection. Particulars: Betacoronavirus 1, OC43, read-out: OC43.

Take `CCSc1nsc(NC(=O)Nc2ccccc2OC)n1` [BC24840, 3-(ethylthio)-5-[3-(o-methoxyphenyl)ureido]-1,2,4-thiadiazole]: the IC50 in the experiment on SARS-CoV-2 NSP7-HiBiT is over 100 µM; with HCoV-OC43 it was 11.5 µM.
With `CCSc1nsc(NC(=O)Nc2cccc(OC)c2)n1` [BC24841, 3-(ethylthio)-5-[3-(m-methoxyphenyl)ureido]-1,2,4-thiadiazole], the IC50 in the experiment on SARS-CoV-2 NSP7-HiBiT is 12.3 µM; in the experiment on HCoV-OC43, 5.5 µM.
With `CCSc1nsc(NC(=O)Nc2cccc(Cl)c2)n1` [BC24842, 5-[3-(m-chlorophenyl)ureido]-3-(ethylthio)-1,2,4-thiadiazole], the IC50 in the experiment on SARS-CoV-2 NSP7-HiBiT is 2.15 µM; in the experiment with HCoV-OC43 it was 1.56 µM.
For `CCSc1nsc(NC(=O)Nc2ccccc2Cl)n1` [BC24843, 5-[3-(o-chlorophenyl)ureido]-3-(ethylthio)-1,2,4-thiadiazole], in that order: 26.2 µM and 16.2 µM.
Regarding `CCSc1nsc(NC(=O)Nc2ccccc2)n1` [BC24844, 3-(ethylthio)-5-(3-phenylureido)-1,2,4-thiadiazole], the results for the IC50 in the experiment on SARS-CoV-2 NSP7-HiBiT and in the experiment on HCoV-OC43 were 9.37 µM and 9.06 µM, respectively.
As for `CCSc1nsc(NC(=O)Nc2ccccc2[N+](=O)[O-])n1` [BC24846, 3-(ethylthio)-5-[3-(o-nitrophenyl)ureido]-1,2,4-thiadiazole], the IC50 with SARS-CoV-2 NSP7-HiBiT amounted to 24.3 µM; in the experiment with HCoV-OC43, 11.4 µM.
With `CCSc1nsc(NC(=O)Nc2cccc(C)c2C)n1` [BC24847, 3-(ethylthio)-5-[3-(2,3-xylyl)ureido]-1,2,4-thiadiazole], the figures for the IC50 in the experiment on SARS-CoV-2 NSP7-HiBiT and with HCoV-OC43 were 65.8 µM and 9.14 µM, respectively.
With `CCSc1nsc(NC(=O)Nc2ccc(C)c(C)c2)n1` [BC24848, 3-(ethylthio)-5-[3-(3,4-xylyl)ureido]-1,2,4-thiadiazole], the figures for the IC50 in the experiment on SARS-CoV-2 NSP7-HiBiT and in the experiment with HCoV-OC43 were 15.5 µM and 7.05 µM, respectively.
Regarding `CCSc1nsc(NC(=O)Nc2cc(C)ccc2C)n1` [BC24849, 3-(ethylthio)-5-[3-(2,5-xylyl)ureido]-1,2,4-thiadiazole], the IC50 in the experiment on SARS-CoV-2 NSP7-HiBiT was found to be 12.8 µM; with HCoV-OC43, 5.35 µM.
For `CCSc1nsc(NC(=O)Nc2cc(F)cc(F)c2)n1` [BC24850, 5-[3-(3,5-difluorophenyl)ureido]-3-(ethylthio)-1,2,4-thiadiazole], the IC50 in the experiment with SARS-CoV-2 NSP7-HiBiT amounted to 2.96 µM; with HCoV-OC43, 1.22 µM.
With `CCSc1nsc(NC(=O)Nc2ccc(C)cc2Cl)n1` [BC24851, 5-[3-(2-chloro-4-tolyl)ureido]-3-(ethylthio)-1,2,4-thiadiazole], the IC50 was over 100 µM in the experiment on SARS-CoV-2 NSP7-HiBiT and 17.4 µM with HCoV-OC43.
Regarding `CCSc1nsc(NC(=O)Nc2ccc(Cl)c(C(F)(F)F)c2)n1` [BC24852, 5-{3-[4-chloro-3-(trifluoromethyl)phenyl]ureido}-3-(ethylthio)-1,2,4-thiadiazole], the IC50 in the experiment on SARS-CoV-2 NSP7-HiBiT was found to be 2.76 µM; in the experiment on HCoV-OC43, 0.907 µM.
Take `CCSc1nsc(NC(=O)Nc2cc(OC)ccc2OC)n1` [BC24853, 5-[3-(2,5-dimethoxyphenyl)ureido]-3-(ethylthio)-1,2,4-thiadiazole]: the IC50 with SARS-CoV-2 NSP7-HiBiT was over 100 µM; in the experiment on HCoV-OC43, 9.87 µM.
On to `CCSc1nsc(NC(=O)Nc2ccc(C)cc2)n1` [BC24854, 3-(ethylthio)-5-[3-(p-tolyl)ureido]-1,2,4-thiadiazole], for which the IC50 in the experiment on SARS-CoV-2 NSP7-HiBiT was determined as 45.1 µM; in the experiment with HCoV-OC43 it was 26.6 µM.
Consider `CCSc1nsc(NC(=O)Nc2ccccc2C)n1` [BC24855, 3-(ethylthio)-5-[3-(o-tolyl)ureido]-1,2,4-thiadiazole], for which the values for the IC50 in the experiment on SARS-CoV-2 NSP7-HiBiT and in the experiment with HCoV-OC43 were 35.2 µM and 8.23 µM, respectively.
The corresponding values for `CCSc1nsc(NC(=O)Nc2ccc(F)c(Cl)c2)n1` [BC24856, 5-[3-(3-chloro-4-fluorophenyl)ureido]-3-(ethylthio)-1,2,4-thiadiazole] are 11.8 µM and 1.41 µM.
The corresponding values for `CCSc1nsc(NC(=O)Nc2ccc(OC)cc2)n1` [BC24857, 3-(ethylthio)-5-[3-(p-methoxyphenyl)ureido]-1,2,4-thiadiazole] are over 100 µM and 88.8 µM.
In the case of `CCOc1ccccc1NC(=O)Nc1nc(SCC)ns1` [BC24858, 5-[3-(o-ethoxyphenyl)ureido]-3-(ethylthio)-1,2,4-thiadiazole], the figures for the IC50 with SARS-CoV-2 NSP7-HiBiT and with HCoV-OC43 were over 100 µM and 24.3 µM, respectively.
For `CCOc1ccc(NC(=O)Nc2nc(SCC)ns2)cc1` [BC24859, 5-[3-(p-ethoxyphenyl)ureido]-3-(ethylthio)-1,2,4-thiadiazole], in that order: over 100 µM and 52.1 µM.
`CCSc1nsc(NC(=O)Nc2cccc(Br)c2)n1` [BC24860, 5-[3-(m-bromophenyl)ureido]-3-(ethylthio)-1,2,4-thiadiazole]: the IC50 with SARS-CoV-2 NSP7-HiBiT and in the experiment on HCoV-OC43 was 1.18 µM throughout.
In the case of `CCSc1nsc(NC(=O)Nc2cccc(Cl)c2C)n1` [BC24862, 5-[3-(3-chloro-2-tolyl)ureido]-3-(ethylthio)-1,2,4-thiadiazole], the IC50 amounted to 7 µM in the experiment on SARS-CoV-2 NSP7-HiBiT and 5.68 µM in the experiment on HCoV-OC43.
Regarding `CCSc1nsc(NC(=O)Nc2cccc(C)c2)n1` [BC24863, 3-(ethylthio)-5-[3-(m-tolyl)ureido]-1,2,4-thiadiazole], the results for the IC50 with SARS-CoV-2 NSP7-HiBiT and with HCoV-OC43 were 5.09 µM and 2.03 µM, respectively.
The corresponding values for `CCSc1nsc(NC(=O)Nc2ccccc2CC)n1` [BC24864, 5-[3-(o-ethylphenyl)ureido]-3-(ethylthio)-1,2,4-thiadiazole] are 47.4 µM and 63.8 µM.
As to `CCOC(=O)Cc1ccc(NC(=O)Nc2nc(SCC)ns2)cc1` [BC24865, ethyl (p-{3-[3-(ethylthio)-1,2,4-thiadiazol-5-yl]ureido}phenyl)acetate], the values for the IC50 in the experiment with SARS-CoV-2 NSP7-HiBiT and in the experiment with HCoV-OC43 were 27.8 µM and 10.7 µM, respectively.
Take `CCSc1nsc(NC(=O)Nc2ccccc2C(F)(F)F)n1` [BC24866, 3-(ethylthio)-5-{3-[o-(trifluoromethyl)phenyl]ureido}-1,2,4-thiadiazole]: the IC50 with SARS-CoV-2 NSP7-HiBiT was found to be 18.5 µM; in the experiment on HCoV-OC43 it was 12.4 µM.
For the compound `CCSc1nsc(NC(=O)Nc2ccc(C)cc2C)n1` [BC24867, 3-(ethylthio)-5-[3-(2,4-xylyl)ureido]-1,2,4-thiadiazole], the IC50 in the experiment with SARS-CoV-2 NSP7-HiBiT was over 100 µM; in the experiment on HCoV-OC43 it was 13 µM.
In the case of `CCOC(=O)CNC(=O)Nc1nc(SCC)ns1` [BC24868, ethyl {3-[3-(ethylthio)-1,2,4-thiadiazol-5-yl]ureido}acetate], the IC50 in the experiment on SARS-CoV-2 NSP7-HiBiT and in the experiment on HCoV-OC43 was over 100 µM throughout.
Turning to `CCSc1nsc(NC(=O)NCCCOC)n1` [BC24869, 3-(ethylthio)-5-[3-(3-methoxypropyl)ureido]-1,2,4-thiadiazole], the IC50 in the experiment with SARS-CoV-2 NSP7-HiBiT is over 100 µM; with HCoV-OC43, 56.7 µM.
Take `CCSc1nsc(NC(=O)Nc2ccc(F)cc2)n1` [BC24870, 3-(ethylthio)-5-[3-(p-fluorophenyl)ureido]-1,2,4-thiadiazole]: the IC50 worked out at 17 µM in the experiment with SARS-CoV-2 NSP7-HiBiT and 10.1 µM with HCoV-OC43.
On to `CCOC(=O)C[C@H](NC(=O)Nc1nc(SCC)ns1)c1ccccc1` [BC24871, ethyl (S)-3-{3-[3-(ethylthio)-1,2,4-thiadiazol-5-yl]ureido}-3-phenylpropionate], for which the figures for the IC50 in the experiment on SARS-CoV-2 NSP7-HiBiT and with HCoV-OC43 were over 100 µM and 23.1 µM, respectively.
As for `CCSc1nsc(NC(=O)NC2CCCC2)n1` [BC24872, 5-(3-cyclopentylureido)-3-(ethylthio)-1,2,4-thiadiazole], the IC50 with SARS-CoV-2 NSP7-HiBiT was over 100 µM; in the experiment on HCoV-OC43 it was 30.9 µM.
For `CCSc1nsc(NC(=O)Nc2ccc(C)c(F)c2)n1` [BC24873, 3-(ethylthio)-5-[3-(3-fluoro-4-tolyl)ureido]-1,2,4-thiadiazole], in that order: 8.51 µM and 7.74 µM.
The corresponding values for `CCSc1nsc(NC(=O)NCCC(=O)OC)n1` [BC24874, methyl 3-{3-[3-(ethylthio)-1,2,4-thiadiazol-5-yl]ureido}propionate] are over 100 µM and 84.2 µM.
For the compound `CCOCCCNC(=O)Nc1nc(SCC)ns1` [BC24875, 5-[3-(3-ethoxypropyl)ureido]-3-(ethylthio)-1,2,4-thiadiazole], the IC50 with SARS-CoV-2 NSP7-HiBiT and with HCoV-OC43 was over 100 µM in each case.
As for `CCSc1nsc(NC(=O)Nc2cc(F)ccc2F)n1` [BC24876, 5-[3-(2,5-difluorophenyl)ureido]-3-(ethylthio)-1,2,4-thiadiazole], the IC50 with SARS-CoV-2 NSP7-HiBiT came to 19.4 µM; in the experiment with HCoV-OC43, 5.5 µM.
Regarding `CCSc1nsc(NC(=O)Nc2cccc(C(F)(F)F)c2)n1` [BC24877], the IC50 is 0.9 µM in the experiment on SARS-CoV-2 NSP7-HiBiT and 0.733 µM with HCoV-OC43.
`CCSc1nsc(NC(=O)Nc2ccc(Br)c(C)c2)n1` [BC24878, 5-[3-(4-bromo-3-tolyl)ureido]-3-(ethylthio)-1,2,4-thiadiazole]: the results for the IC50 with SARS-CoV-2 NSP7-HiBiT and with HCoV-OC43 were 3.8 µM and 2.55 µM, respectively.
Regarding `CCSc1nsc(NC(=O)NCc2ccc(C)cc2)n1` [BC24879, 3-(ethylthio)-5-{3-[(p-tolyl)methyl]ureido}-1,2,4-thiadiazole], the figures for the IC50 in the experiment on SARS-CoV-2 NSP7-HiBiT and in the experiment with HCoV-OC43 were 27.6 µM and 13.3 µM, respectively.
For `CCSc1nsc(NC(=O)Nc2ccc3c(c2)OCCO3)n1` [BC24880, 5-[3-(2,3-dihydro-1,4-benzodioxin-6-yl)ureido]-3-(ethylthio)-1,2,4-thiadiazole], the results for the IC50 in the experiment with SARS-CoV-2 NSP7-HiBiT and with HCoV-OC43 were 33.1 µM and 21.2 µM, respectively.
For the compound `CCSc1nsc(NC(=O)NCCc2ccccc2)n1` [BC24881, 3-(ethylthio)-5-(3-phenethylureido)-1,2,4-thiadiazole], the IC50 in the experiment on SARS-CoV-2 NSP7-HiBiT is 30 µM; in the experiment with HCoV-OC43 it was 31.9 µM.
Consider `CCSc1nsc(NC(=O)NCc2cccc(OC)c2)n1` [BC24883, 3-(ethylthio)-5-{3-[(m-methoxyphenyl)methyl]ureido}-1,2,4-thiadiazole], for which the IC50 with SARS-CoV-2 NSP7-HiBiT was over 100 µM; in the experiment with HCoV-OC43, 67.8 µM.
For the compound `CCSc1nsc(NC(=O)Nc2ccc(F)cc2F)n1` [BC24884, 5-[3-(2,4-difluorophenyl)ureido]-3-(ethylthio)-1,2,4-thiadiazole], the IC50 in the experiment on SARS-CoV-2 NSP7-HiBiT is 27.6 µM; with HCoV-OC43, 16.9 µM.
The corresponding values for `CCSc1nsc(NC(=O)NCc2ccco2)n1` [BC24885, 3-(ethylthio)-5-(3-furfurylureido)-1,2,4-thiadiazole] are over 100 µM and over 100 µM.

Source of the values: article PMC12463105, “NSP7 Molecular Degrader Attenuates Coronaviral Infection Through the β‐TrCP1/FBXO5 Axis” (Advanced Science, 2025).
